Like-named read-outs stand apart in the source and are kept apart here. Non-standard residues stand in square brackets, D forms with d. Residues, ends and D or L forms follow the SMILES beside them. *: point of attachment. Nva = CCC[C@H](N)C(=O)O; Cbz = O=C(OCc1ccccc1)*
Experiments:
RAW cells = assay: Celltiter 96 Aqueous cell proliferation assay, RAW; type: cell-based; details: 18 hours with compound
Description: (§1) Compounds prepared according to the method of Example 1 were assayed against several different cell lines. Cell monolayers were cultured in the presence of test compound for 18 hours to access their ability to inhibit cell proliferation. Cell proliferation was determined colorimetrically using the Celltiter 96 Aqueous non-radioactive cell proliferation assay (Promega) where cell proliferation is directly proportional to absorbance at 490 nm. Results are quoted as the IC50 in μg/ml for inhibition of cell proliferation in various cell types.

Panc-I cells = assay: Celltiter 96 Aqueous cell proliferation assay, Panc-I; type: cell-based; details: 18 hours with compound
Description: as §1

[1] = system: LPS induced TNF synthesis; assay: Inhibition of LPS induced TNF synthesis in RAW cells (ELISA); type: cell-based; details: 1 hour pretreatment, LPS 100 ng/ml, supernatant after 1 hour
Description: Compounds prepared according to the method of Example 1 were tested for the inhibition of LPS induced TNF synthesis. RAW cells were pretreated with different concentrations of test compound for 1 hour prior to the administration of lipopolysaccharide (100 ng/mi). Cell culture supernatants were harvested after 1 hour and assayed for TNF concentration by ELISA (Biosource)

OVCAR cells = assay: Celltiter 96 Aqueous cell proliferation assay, OVCAR; type: cell-based; details: 18 hours with compound
Description: as §1

[2] = target: T1, 20S catalytic subunit of the proteasome (multicatalytic proteinase complex) (Bos taurus, UniProt Q32KL2); assay: 20S proteasome chymotryptic activity, fluorogenic peptide cleavage; type: biochemical, bovine; details: 50 μM succinyl-leu-leu-val-tyr-7-amino-4-methyl coumarin, 15 minutes at 37° C, pH7.5
T1 construct: was purified to homogeneity from bovine brain according to published methods; from tissue; host or cells: bovine brain
Outline: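 Purified bovine-brain 20S proteasome (2 μg) with 0.1-100 μg/ml inhibitor in 50 mM HEPES, 0.1% SDS, pH 7.5. Reaction started with 50 μM Suc-LLVY-AMC, 15 min at 37° C, stopped with pH 4.0 acetate; liberated AMC read by fluorescence (ex 370, em 430 nm).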

[3] = target: T2, chymotrypsin-like activity associated with the proteasome (Homo sapiens, UniProt P28074); details: cited from earlier work
T2 sequence (P28074 60-263): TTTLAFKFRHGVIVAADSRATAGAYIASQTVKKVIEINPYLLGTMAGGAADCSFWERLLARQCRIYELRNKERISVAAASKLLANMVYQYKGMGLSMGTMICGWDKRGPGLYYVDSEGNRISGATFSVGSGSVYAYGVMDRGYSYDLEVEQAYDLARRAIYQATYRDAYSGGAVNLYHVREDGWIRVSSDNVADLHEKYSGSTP

MCF-7 cells = assay: Celltiter 96 Aqueous cell proliferation assay, MCF-7; type: cell-based; details: MCF-7, 18 hours with compound
Description: as §1

p105 to p50 processing = assay: Inhibition of LPS-induced p105 to p50 processing, Western blot of RAW cell lysates; type: cell-based; details: 1 hour pretreatment, anti-p50 Western blot (FIG. 2)
Text: (§2) This Example examines the ability of compound 173 and particularly compound 187 described in Tables 1 & 2 above to inhibit proteasome activity as indicated, in part, by the presence of IκB and/or p105 in inhibited cells. In order for NF-κB to translocate to the nucleus in response to a stimulus such as lipopolysaccharide (LPS) and activate transcription two proteolytic events need to occur, namely degradation of the inhibitory protein IκB and processing of p105 to p50. These proteolytic events serve to unmask the nuclear localization signal of NF-κB.
Compound 187 as described in Tables 1 & 2 above was used to pretreat RAW cells as described above, and whole cell lysates prepared as described above were analyzed for immunoreactivity toward an anti-p50 antibody. The results, set forth in FIG. 2 indicate that p50 and […] are both present in cells treated with as little as 5 μg/ml of compound 187, while in untreated cells, majority of P 105 has been processed to p50.

IκB degradation = assay: Inhibition of LPS-induced IκB degradation, Western blot of RAW cell lysates; type: cell-based; details: 1 hour pretreatment, LPS 100 ng/ml 1 hour, anti-IκBα Western blot (FIG. 1)
Text: as §2
RAW cells were pretreated with different concentrations of test compound for 1 hour prior to the administration of lipopolysaccharide (100 ng/ml). Whole cell lysates were harvested after 1 hour, 10 μg, protein was separated by SDS-PAGE, transferred to nitrocellulose and assayed for immunoreactivity with anti-IκBa antibody. Western blots, (See FIG. 1), were visualized using the Boehringer Mannheim Chemiluminescent detection kit.

NF-κB = assay: Inhibition of LPS-induced translocation of NF-κB to the nucleus, gel mobility shift assay; type: cell-based; details: RAW cells, 20 μg/ml for 1 hour, then LPS 100 ng/ml 1 hour (FIG. 3)
Description: RAW cells were treated for 1 hour with compound 187 (20 μg/ml) and then incubated with lipopolysaccharide (100 ng/ml) for a further one hour. Nuclear fractions were prepared according to standard procedures. Binding reactions for gel mobility shift assays contained 5 μg of nuclear extract protein, 50,000 cpm of ^32 P-labeled NF-κB consensus binding oligonucleotide in the presence and absence of a fifty fold excess of unlabeled oligonucleotide.

CaCo cells = assay: Celltiter 96 Aqueous cell proliferation assay, CaCo; type: cell-based; details: 18 hours with compound
Description: as §1

COc1ccc(CNC(=O)C(CC(C)C)NC(=O)C(CC(C)C)NC(=O)CC2CC(=O)c3ccc(OC)cc32)cc1 (mixture of isomers) [Compound 194]
IC50 for inhibition of cell proliferation, RAW (RAW cells): 1 µg/mL | IC50 for inhibition of cell proliferation, Panc-I (Panc-I cells): 8 µg/mL | IC50 inhibition of LPS induced TNF synthesis [1]: 3 µg/mL | IC50 for inhibition of cell proliferation, OVCAR (OVCAR cells): 3 µg/mL | IC50 [2]: > 10 µg/mL

COc1ccc2c(c1)C(CC(=O)NC(CC(C)C)C(=O)NC(CC(C)C)C(=O)NCc1c(F)cccc1F)CC2=O (mixture of isomers) [Compound 196]
IC50 for inhibition of cell proliferation, RAW (RAW cells): 7 µg/mL | IC50 for inhibition of cell proliferation, Panc-I (Panc-I cells): 8 µg/mL | IC50 inhibition of LPS induced TNF synthesis [1]: 3 µg/mL | IC50 for inhibition of cell proliferation, OVCAR (OVCAR cells): 2 µg/mL | IC50 [2]: 0.08 µg/mL

N-acetyl-L-leucinyl-L-leucinal-L-norleucinal [ALLN]
Ki ([3]; literature values): 140 nM

CSCC[C@@H](C=O)NC(=O)[C@H](CC(C)C)NC(=O)[C@H](CC(C)C)NC(C)=O [LLM, N-acetyl-L-leucinyl-L-leucinyl-methional] (Ac-Leu-Leu-Met-aldehyde)
Ki ([3]; literature values): 140 nM

COc1ccc2c(c1)C(CC(=O)NC(CC(C)C)C(=O)NC(CC(C)C)C(=O)NCc1ccc3c(c1)OCO3)CC2=O (mixture of isomers) [Compound 197]
IC50 for inhibition of cell proliferation, RAW (RAW cells): 12 µg/mL | IC50 for inhibition of cell proliferation, Panc-I (Panc-I cells): 8 µg/mL | IC50 inhibition of LPS induced TNF synthesis [1]: 3 µg/mL | IC50 for inhibition of cell proliferation, OVCAR (OVCAR cells): 2 µg/mL | IC50 [2]: 0.2 µg/mL

COc1ccc2c(c1)C(CC(=O)NC(CC(C)C)C(=O)NC(CC(C)C)C(=O)NC1CCc3ccccc31)CC2=O (mixture of isomers) [Compound 187]
IC50 for inhibition of cell proliferation, RAW (RAW cells): 10 µg/mL | IC50 for inhibition of cell proliferation, Panc-I (Panc-I cells): 7 µg/mL | IC50 inhibition of LPS induced TNF synthesis [1]: 5 µg/mL | IC50 for inhibition of cell proliferation, MCF-7 (MCF-7 cells): 6 µg/mL | concentration at which p50 and p150 are both present in treated cells (p105 to p50 processing): ≤ 5 µg/mL | concentration at which IκB is present in treated cells (IκB degradation): ≤ 5 µg/mL | IC50 for inhibition of cell proliferation, OVCAR (OVCAR cells): 5 µg/mL | accumulation of NF-κB in the nucleus of cells (NF-κB): effective in inhibiting the accumulation of NF-κB in the nucleus of cells | IC50 for inhibition of cell proliferation, CaCo (CaCo cells): 8 µg/mL | IC50 [2]: 0.5 µg/mL

CCC[C@@H](C=O)NC(=O)[C@H](CC(C)C)NC(=O)[C@H](CC(C)C)NC(=O)OCc1ccccc1 [MG 115, N-carbobenzoxyl-L-leucinyl-L-leucinyl-L-norvalinal] (Cbz-Leu-Leu-[Nva]-aldehyde)
Ki ([3]; literature value): 21 nM

COc1ccc2c(c1)C(CC(=O)NC(CC(C)C)C(=O)NC(CC(C)C)C(=O)NCc1ccccc1)CC2=O (mixture of isomers) [Compound 173]
IC50 for inhibition of cell proliferation, RAW (RAW cells): 20 µg/mL | IC50 for inhibition of cell proliferation, Panc-I (Panc-I cells): 17 µg/mL | IC50 inhibition of LPS induced TNF synthesis [1]: 5 µg/mL | IC50 for inhibition of cell proliferation, MCF-7 (MCF-7 cells): 10 µg/mL | concentration at which IκB is present in treated cells (IκB degradation): ≤ 5 µg/mL | IC50 for inhibition of cell proliferation, OVCAR (OVCAR cells): 8 µg/mL | IC50 for inhibition of cell proliferation, CaCo (CaCo cells): 17 µg/mL | IC50 [2]: 0.5 µg/mL

COc1ccc2c(c1)C(CC(=O)NC(CC(C)C)C(=O)NC(CC(C)C)C(=O)NCC(N)=O)CC2=O (mixture of isomers) [Compound 21]
IC50 [2]: 0.1 µg/mL

COc1ccc(CN(C(=O)CC2CC(=O)c3ccc(OC)cc32)c2ccccn2)cc1 (stereo not drawn) [Compound 149]
IC50 [2]: > 10 µg/mL

CCCC(NC(=O)CC1CC(=O)c2ccc(OC)cc21)C(=O)NC(CC(C)C)C(=O)NCC(N)=O (mixture of isomers) [Compound 44]
IC50 [2]: > 10 µg/mL

COc1ccc2c(c1)C(CC(=O)NC(CC(C)C)C(=O)NCc1ccccc1)CC2=O (mixture of isomers) [Compound 198]
IC50 [2]: > 10 µg/mL

COc1ccc2c(c1)C(CC(=O)N[C@@H](CC(C)C)C(=O)N[C@@H](C(=O)NCC(N)=O)C(C)C)CC2=O (stereo partly drawn) [Compound 90]
IC50 [2]: > 10 µg/mL

COc1ccc2c(c1)C(CC(=O)NC(CCCCN)C(=O)NC(CC(C)C)C(N)=O)CC2=O (mixture of isomers) [Compound 100]
IC50 [2]: > 10 µg/mL

COc1ccc2c(c1)C(CC(=O)NCCO)CC2=O (stereo not drawn) [Compound 84]
IC50 [2]: > 10 µg/mL

COc1ccc2c(c1)C(CC(=O)NC1CCN(Cc3ccccc3)CC1)CC2=O (stereo not drawn) [Compound 110]
IC50 [2]: > 10 µg/mL

COc1ccc2c(c1)C(CC(=O)Nc1ccccc1)CC2=O (stereo not drawn) [Compound 122]
IC50 [2]: > 10 µg/mL

COc1ccc2c(c1)C(CC(=O)NC(C(=O)NC(CC(C)C)C(N)=O)C(C)C)CC2=O (mixture of isomers) [Compound 30]
IC50 [2]: > 10 µg/mL

COCCN(CCOC)C(=O)CC1CC(=O)c2ccc(OC)cc21 (stereo not drawn) [Compound 79]
IC50 [2]: > 10 µg/mL

COc1ccc2c(c1)C(CC(=O)N1CCC(O)(c3ccccc3)CC1)CC2=O (stereo not drawn) [Compound 151]
IC50 [2]: > 10 µg/mL

Source: patent publication US5834487A, “Inhibition of 26S and 20S proteasome by indanones” (CV Therapeutics, priority 1996, dated 1998)
